Assay results reported in US5928645A, “Extracted substance having anti-HIV activity” (Young Bok Han & Korean Assoc. of Creation Research, priority 1992, dated 1999).
Read-outs that look alike come from different tables or passages of the source.

Legend:
[1] = system: HIV-infected cells (T cell line SupT1); test: Syncytium-formation assay (number of multinucleate cells); type: cell-based; settings: three-day incubation
Protocol: To evaluate toxicity of the extracted substances on a T cell line (SupT1), maximum acceptable concentrations of antiviral agents were determined as follows:
After incubation, the cells were treated with trypan blue. The number of cells that excluded the dye was counted using a hemocytometer. "TCID50 " is defined as the 50% tissue culture-infective dose. (Reference: Techniques in HIV research, ed. Aldovini, A., and Walter, B. D., Stockton Press, N.Y. Unitd States, Chapter 4. Quantitative assay for virus infectivity, pp. 71-73, 1990.) The 50% tissue culture-infective dose (TCID50) is calculated using the method of Reed and Muench (Dulbecco, R., "Endpoint Method-Measurement of the infectious titer of a viral sample" in the chapter entitled: The Nature of Viruses in Virology, Second Edition, J. P. Lippincott, Philadelphia, pp. 22-25, 1988). This method is applicable for measuring the infectious titer of a viral sample from an assay involving a series of progressive dilutions of virus. To generate the 50% endpoint dilution, an empirical pooling of the results is done after reading the plate for visible infection at all of the dilutions tested. In cell cultures, the tissue culture infective dose (TCID50) is the dilution of virus suspension that infects 50% of the cell cultures as measured by visible CPE.
After a three-day incubation the number of multinucleate cells in each culture were counted. As comparative tests, similar experiments were performed using AZT or berberine, rather than the extract of the present invention, to treat the cells.

reverse transcriptase = test: Reverse transcriptase activity of HIV-infected H9 cells; type: cell-based; settings: 0.5 μg/ml
Protocol: The effect of the extract of the present invention on reverse transcriptase activity and on viral replication was also measured in H9 host cells. HIV infected H9 cells were cultured in RPMI 1640 supplemented with 10% (v/v) of heat-inactivated fetal calf serum and 1% (v/v) […] Every third day 1/4 of the cultures were transferred to new media containing the same concentration of the extract. The cultures were harvested after 9 days and centrifuged for 3 minutes in an Eppendorf centrifuge. 600 μl of supernatant was mixed 300 μl of 30% polyethylene glycol (PEG) and then centrifuged for 10 minutes. The pellet was resuspended in RT suspension buffer (50 mM Tris, pH 7.5, 1 mM DTT, 20% glycerol, 0.25% Triton X-100). These virus samples were frozen at -70° C. until assayed. Aliquots of virus (10 μl) were incubated with 20 μl of a cocktail containing 50 mM Tris, pH 7.5, 5 mM DTT, 5 mM MgCl2, 150 mM KCl, 0.05% Triton X-100, 0.3 mM glutathione, 0.5 mM EGTA, 50 μg/ml poly(rA)dT, 10μ Ci thymidine triphosphate, and 17.25 μl distilled water for 1 hour at 37° C. […] Precipitates were collected on Whatman GF/C glass fibers, washed several times with ice-cold 5% TCA and once with 70% ethanol, air dried and counted in a liquid scintillation counter.

[2] = system: ABEI-microperoxidase-H2 O2 system; test: Antioxidant activity by chemiluminescence (inhibition of light intensity); type: biochemical
Text: Therefore, we characterized the extract of the present invention with respect to its ability to function as an antioxidant. We compared the extract to the known antioxidant t-butylhydroxy toluene (BHT) using a chemiluminescence assay developed in this laboratory. […] Therefore, it is proposed that the extract has anti-HIV effect.
Materials: microperoxidase (MP, Sigma Chemical Company, St. Louis, Mo., U.S.A.), aminobuty ethylisoluminol (ABEI, Sigma Chemical Company, St. Louis, Mo., U.S.A.), t-butylhydroxy toluene (BHT, Sigma Chemical Company, St. Louis, Mo., U.S.A.).
An ABEI-microperoxidase-H2 O2 system was used to assay the antioxidant activity of the extract of the present invention and also that of the known antioxidant BHT. The activity of berberine as an antioxidant was also assessed.
ABEI was used at 0.18 μM. Compounds being assayed were used at 10 mg/ml as a maximum concentration and also at serial dilutions. 200 μL of ABEI, t-butylhydroxy toluene (BHT), pure berberine or the extracted substance at 10 mg/ml (or a serial dilution thereof) were put in a polystyrene tube suitable for use in a Berthold 9502 luminometer. Hydrogen peroxide (0.35%) and microperoxidase (0.01 mg/ml) were autoinjected into the tube to start the chemiluminescence reaction. Chemiluminescence from the reaction was measured for 2 seconds using a Berthold Luminometer 9502 (Clilumat). In control samples distilled water and ethyl alcohol were used. The antioxidant activity of the extract was compared with commercial antioxidant BHT. The antioxidant activity of BHT has been studied for many years (Branen, A. L.; Toxicological and biochemistry of butylated hydrosyanisole and butylated hydroxytoluene. J. Am. Oil Chem. Soc. 52:59, 1975). BHT removes free radicals in oxidation reactions, and it inhibits oxidation of materials.
An antioxidant present in the sample will prevent ABEI from being oxidized by microperoxidase, thus inhibiting chemiluminescence. Antioxidant activity was calculated from the chemiluminescence intensity using the following expression: [formula]

[3] = system: HIV reverse transcriptase; settings: cited from earlier work
HIV = settings: Tan et al. 1992; cited from earlier work
[4] = with respect to the template-primer complex, (rA)n, (dT)
[5] = with respect to the triphosphate substrate, dTTP

Cc1cn([C@H]2C[C@H](N=[N+]=[N-])[C@@H](CO)O2)c(=O)[nH]c1=O [AZT, azidothymidine]
No. of Multiple-Nucleate Cells ([1]; 0.2 μg/mL): 0
No. of Multiple-Nucleate Cells ([1]; 0.5 μg/mL): 1
No. of Multiple-Nucleate Cells ([1]; 1 μg/mL): 0
No. of Multiple-Nucleate Cells ([1]; 5 μg/mL): 0

COc1ccc2cc3[n+](cc2c1OC)CCc1cc2c(cc1-3)OCO2 [Berberine, berberine]
inhibition of viral RT activity (reverse transcriptase): marked inhibitory effect on RT activity
Percentage of inhibition of light intensity ([2]; 0.63 mg/ml): 11%
Percentage of inhibition of light intensity ([2]; 1.25 mg/ml): 12%
Percentage of inhibition of light intensity ([2]; 2.5 mg/ml): 12%
Percentage of inhibition of light intensity ([2]; 5.0 mg/ml): 21%
Percentage of inhibition of light intensity ([2]; 10.0 mg/ml): 57%
antioxidant activity compared with the total extract ([2]; 0.63-10.0 mg/ml): much lower
No. of Multiple-Nucleate Cells ([1]; 0.1 μg/mL): 8
No. of Multiple-Nucleate Cells ([1]; 0.5 μg/mL): 5
No. of Multiple-Nucleate Cells ([1]; 1 μg/mL): 2
No. of Multiple-Nucleate Cells ([1]; 3 μg/mL): 1

O=c1cc(-c2ccccc2)oc2cc(O)c(O)c(O)c12 [baicalein]
mode of inhibition [3, 4]: partially competitive
mode of inhibition [3, 5]: noncompetitive

COc1ccc2cc3[n+](cc2c1OC)CCc1cc2c(cc1-3)OCO2 [berberine chloride]
order of anti-HIV effect (HIV): jatrorrhizine chloride>berberine chloride>coptisine chloride

c1c2c(cc3c1OCO3)-c1cc3ccc4c(c3c[n+]1CC2)OCO4 [coptisine chloride]
order of anti-HIV effect (HIV): jatrorrhizine chloride>berberine chloride>coptisine chloride

COc1cc2c(cc1O)CC[n+]1cc3c(OC)c(OC)ccc3cc1-2 [jatrorrhizine chloride]
order of anti-HIV effect (HIV): jatrorrhizine chloride>berberine chloride>coptisine chloride

O=c1c(O)c(-c2ccc(O)c(O)c2)oc2cc(O)c(O)c(O)c12 [quercetagetin]
mode of inhibition [3, 4]: partially competitive
mode of inhibition [3, 5]: noncompetitive

O=c1c(O)c(-c2ccc(O)c(O)c2)oc2cc(O)cc(O)c12 [quercetin]
mode of inhibition [3, 4]: partially competitive
mode of inhibition [3, 5]: noncompetitive
